Data published in US20080058399A1, “Pharmaceutical Compositions” (ASTRAZENECA AB, priority 2006, published 2008).
Like-named read-outs stand apart in the source and are kept apart here.

Assays:
[1] = Dissolution study, USP dissolution apparatus II; type: physicochemical; conditions: 500 ml 0.2% polysorbate 20 in 0.05 M phosphate buffer pH 6.5, paddle 75 rpm; 8 mg c.c. added except tablets as footnoted
Method: The medium used for dissolution studies was 500 ml of 0.2% polysorbate 20 in 0.05 M phosphate buffer pH 6.5 with a paddle speed of 75 rpm (USP dissolution apparatus II). In all dissolution tests, 8 mg of candesartan cilexetil was added to the medium (except where other is stated). After extraction with 60% (v/v) acetonitrile in water (filter pore size 0.45 μm), the amount of candesartan cilexetil was determined by liquid chromatography and UV-detection at 254 nm.

[2] = Bioavailability in rats after per-oral administration; conditions: rat, in vivo, read-out: Relative bioavailability
[3] = cited from earlier work

Drug dissolved after 5 minutes [1]: 24 | Drug dissolved after 10 minutes [1]: 43 | Drug dissolved after 15 minutes [1]: 54 | Drug dissolved after 20 minutes [1]: 61 | bioavailability ([2]; given as a suspension): 19% | bioavailability ([2]; given in solution): 50%
SMILES: CCOc1nc2cccc(C(=O)OC(C)OC(=O)OC3CCCCC3)c2n1Cc1ccc(-c2ccccc2-c2nnn[nH]2)cc1 (stereo not shown) [c.c., candesartan cilexetil]
Solubility in water [3]: < 0.05 µg/mL
